# Experimental data published in patent US6730792B2, “β3 adrenergic agonists” (Eli Lilly and Company, priority 2000, dated 2004).
# Biological target: T1, human β3 adrenergic receptor (Homo sapiens, UniProt P13945)
# T1 construct: expressed in transfected cells; host or cells: DXB-11 Chinese hamster ovary (CHO) cell line, stably transfected (phd expression vector)
# Test: whole cell receptor coupled c-AMP assay, human β3 receptor in CHO cells (EC50, Emax relative to isoproterenol)
# Assay type: cell-based
# Conditions: % intrinsic activity relative to isoproterenol maximal response; average of at least 3 runs; c-AMP in transfected CHO cells
# Method in brief: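 Stably transfected DXB-11 CHO cells (20,000/well) were exposed to compound for 20 min at 37 °C in HBSS/HEPES buffer with 1 mM IBMX, pH 7.4. cAMP was measured by SPA. EC50 came from a four-parameter logistic fit, and Emax is the maximal response as a percentage of isoproterenol's.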
# T1 sequence (P13945 whole entry): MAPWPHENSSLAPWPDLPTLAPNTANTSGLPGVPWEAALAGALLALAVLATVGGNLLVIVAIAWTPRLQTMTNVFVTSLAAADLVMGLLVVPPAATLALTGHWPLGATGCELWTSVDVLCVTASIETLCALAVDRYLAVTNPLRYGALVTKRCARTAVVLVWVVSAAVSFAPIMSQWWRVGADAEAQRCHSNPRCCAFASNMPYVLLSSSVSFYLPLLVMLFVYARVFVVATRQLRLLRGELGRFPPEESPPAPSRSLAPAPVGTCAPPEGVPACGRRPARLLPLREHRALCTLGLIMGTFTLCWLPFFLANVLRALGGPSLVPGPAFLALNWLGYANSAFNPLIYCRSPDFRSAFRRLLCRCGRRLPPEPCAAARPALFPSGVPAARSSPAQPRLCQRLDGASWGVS
row,Emax (%) ± SEM [%],SMILES
1,<10,CC(C)(Cc1ccc(Oc2ccc(C#N)cn2)cc1)NC[C@H](O)COc1ccccc1-c1cccnc1 [Example 388]
2,20.3 ± 2.0,CC(C)(Cc1ccc(Oc2ccc(C(N)=O)cn2)cc1)NC[C@H](O)COc1ccccc1-c1cccnc1 [Example 389]
3,50.0 ± 3.6,CC(C)(Cc1ccc(Oc2ccc(S(C)(=O)=O)cc2)cc1)NC[C@H](O)COc1ccccc1-c1ccc(Cl)s1.Cl [Example 393]
4,22.5 ± 1.5,CC(C)(Cc1ccc(Oc2ncccc2C(N)=O)cc1)NC[C@H](O)COc1ccccc1-c1cccnc1 [Example 391]
5,78.7 ± 14.9,CC(C)(Cc1ccc(Oc2ncccc2C(N)=O)cc1)NC[C@H](O)COc1ccccc1-c1cc2ccccc2s1.O=C(O)C(F)(F)F [Example 387]
6,55.8 ± 7.1,CC(C)(Cc1ccc(Oc2ccc(C#N)cn2)cc1)NC[C@H](O)COc1ccccc1-c1ccc(Cl)s1.O=C(O)C(F)(F)F [Example 406]
7,35.1 ± 7.3,CC(C)(Cc1ccc(Oc2ncccc2C#N)cc1)NC[C@H](O)COc1ccccc1-c1ccncc1 [Example 375]
8,76.0 ± 5.0,CC(C)(Cc1ccc(Oc2ccc(C(N)=O)cn2)cc1)NC[C@H](O)COc1ccccc1-c1ccc(Cl)s1.Cl [Example 410]
9,79.7 ± 7.6,CC(=O)c1ccc(-c2ccccc2OC[C@@H](O)CNC(C)(C)Cc2ccc(Oc3ccc(C#N)cn3)cc2)s1.Cl [Example 407]

# Same assay, conditions: Emax ± SEM; average of at least 3 runs except as otherwise indicated; tested as the isolated form listed
row,Emax (%) ± SEM [%],SMILES
1,69.2 ± 2.5,CC(C)(Cc1ccc(Oc2ccc(C#N)nc2)cc1)NC[C@H](O)COc1ccccc1-c1ncco1.O=C(O)C(F)(F)F [Example 364]

# Same assay, conditions: Emax ± standard error of the mean; average of at least 3 runs except where n = 1; compound tested in the isolated form listed
row,Emax (%) ± SEM,SMILES
1,33.5 ± 4.2%,CC(C)(Cc1ccc(Oc2ccc(C(N)=O)cn2)cc1)NC[C@H](O)COc1ccccc1C1=CC(=O)OC1.Cl [Example 41]
2,43.3 ± 6.8%,CC(C)(Cc1ccc(Oc2ccc(Cl)cn2)cc1)NC[C@H](O)COc1ccccc1-c1ccno1.O=C(O)C(F)(F)F [Example 169]
3,52.3 ± 6.6%,CC(C)(Cc1ccc(Oc2ccc(C(N)=O)o2)cc1)NC[C@H](O)COc1ccccc1-c1cscn1.Cl [Example 261]
4,48.1 ± 3.8%,CC(C)(Cc1ccc(Oc2ccc(C(F)(F)F)cn2)cc1)NC[C@H](O)COc1ccccc1-c1ccno1.O=C(O)C(F)(F)F [Example 195]
5,38.3 ± 5.7%,CC(C)(Cc1ccc(Oc2ccc(C#N)cc2F)cc1)NC[C@H](O)COc1ccccc1-c1nccs1.O=C(O)C(F)(F)F [Example 188]
6,35.7 ± 2.8%,CC(C)(Cc1ccc(Oc2ccc(C(N)=O)cn2)cc1)NC[C@H](O)COc1ccccc1-n1ccc(C#N)c1.Cl [Example 272]
7,44.6 ± 6.2%,CC(C)(Cc1ccc(Oc2ccc(C#N)nc2)cc1)NC[C@H](O)COc1ccccc1-c1nccs1.O=C(O)C(F)(F)F [Example 145]
8,14.4 n = 1%,CC(C)(Cc1ccc(Oc2ncccc2C(N)=O)cc1)NC[C@H](O)COc1cccc(-c2cc[nH]n2)c1 [Example 92]
9,39.9 ± 4.9%,CC(C)(Cc1ccc(Oc2ccncc2)cc1)NC[C@H](O)COc1ccccc1-c1ccno1.O=C(O)C(F)(F)F [Example 287]
10,73.6 ± 8.2%,CC(C)(Cc1ccc(Oc2ccc(C(N)=O)cc2)cc1)NC[C@H](O)COc1ccccc1-c1cccs1.O=C(O)C(F)(F)F [Example 123]
11,92.4 ± 7.3%,CC(C)(Cc1ccc(Oc2ccc(Cl)nn2)cc1)NC[C@H](O)COc1ccccc1-c1cccs1.O=C(O)C(F)(F)F [Example 208]
12,45.1 ± 1.5%,CC(C)(Cc1ccc(Oc2ccc(C#N)cc2F)cc1)NC[C@H](O)COc1ccccc1-c1cccs1.O=C(O)C(F)(F)F [Example 187]
13,57.8 ± 3.1%,CC(C)(Cc1ccc(Oc2ccncc2)cc1)NC[C@H](O)COc1ccccc1-c1nccs1.O=C(O)C(F)(F)F [Example 203]
14,59.1 n = 1%,Cn1ccc(-c2ccccc2OC[C@@H](O)CNC(C)(C)Cc2ccc(Oc3ccc(C#N)cn3)cc2)n1 [Example 49]
15,62.2 ± 1.3%,CC(C)(Cc1ccc(Oc2ccc(C(N)=O)cc2)cc1)NC[C@H](O)COc1ccccc1-c1ccns1.O=C(O)C(F)(F)F [Example 126]
16,57.0 ± 7.6%,CC(C)(Cc1ccc(Oc2cccc(Cl)n2)cc1)NC[C@H](O)COc1ccccc1-c1nccs1.O=C(O)C(F)(F)F [Example 176]
17,40.3 ± 3.7%,CC(C)(Cc1ccc(Oc2ccc(C(N)=O)cn2)cc1)NC[C@H](O)COc1ccccc1-c1ccncn1 [Example 75]
18,24.7 ± 5.2%,CC(C)(Cc1ccc(Oc2ncccc2C#N)cc1)NC[C@H](O)COc1ccc(-c2ccno2)cc1.O=C(O)C(F)(F)F [Example 62]
19,48.4 ± 5.6%,CC(C)(Cc1ccc(Oc2ccc(C#N)s2)cc1)NC[C@H](O)COc1ccccc1-c1cscn1.Cl [Example 258]
20,49.7 ± 3.9%,CC(C)(Cc1ccc(Oc2ccc(C(N)=O)cc2Cl)cc1)NC[C@H](O)COc1ccccc1-c1nccs1.O=C(O)C(F)(F)F [Example 165]
21,44.6 ± 4.3%,CC(C)(Cc1ccc(Oc2ccc(C#N)cc2Cl)cc1)NC[C@H](O)COc1ccccc1-c1ccno1.O=C(O)C(F)(F)F [Example 163]
22,47.9 ± 3.5%,CC(C)(Cc1ccc(Oc2ccccc2C#N)cc1)NC[C@H](O)COc1ccccc1-c1cscn1.Cl [Example 243]
23,52.1 ± 2.4%,CC(C)(Cc1ccc(Oc2cccc(Cl)c2C(N)=O)cc1)NC[C@H](O)COc1ccccc1-c1cscn1.Cl [Example 246]

row,Emax (%) ± SEM,SMILES
1,41.4 ± 6.6%,CC(C)(Cc1ccc(Oc2ccc(C(N)=O)cn2)cc1)NC[C@H](O)COc1ccccc1-c1nc2ccccc2o1 [Example 26]
2,<10%,CC(C)(Cc1ccc(Oc2ncccc2C(N)=O)cc1)NC[C@H](O)COc1cccc(-c2ccno2)c1 [Example 93]
3,13.7 ± 3.5%,CC(C)(Cc1ccc(Oc2ccc(C(N)=O)cn2)cc1)NC[C@H](O)COc1ccccc1N1CCNCC1.Cl.Cl.Cl [Example 25]
4,37.5 n = 1%,CC(C)(Cc1ccc(Oc2ncccc2C#N)cc1)NC[C@H](O)COc1ccccc1-c1ccn[nH]1 [Example 55]
5,34.6 ± 7.8%,CC(C)(Cc1ccc(Oc2ccc(S(C)(=O)=O)cc2)cc1)NC[C@H](O)COc1ccccc1-c1ccno1 [Example 132]
6,73.8 ± 6.0%,CC(C)(Cc1ccc(Oc2ncccc2C(N)=O)cc1)NC[C@H](O)COc1ccccc1-c1nccs1 [Example 70]
7,43.3 ± 2.7%,CC(C)(Cc1ccc(Oc2ccc(C(N)=O)cn2)cc1)NC[C@H](O)COc1ccccc1-c1nncs1.O=C(O)C(=O)O [Example 42]
8,<10%,CC(C)(Cc1ccc(Oc2ccc(C(N)=O)cn2)cc1)NC[C@H](O)COc1cccc(C2=NCCN2)c1 [Example 59]
9,52.5 ± 4.7%,CC(C)(Cc1ccc(Oc2ccc(C#N)cc2Cl)cc1)NC[C@H](O)COc1ccccc1-c1cccs1.O=C(O)C(F)(F)F [Example 161]
10,58.7 ± 2.9%,CC(C)(Cc1ccc(Oc2cccnc2C#N)cc1)NC[C@H](O)COc1ccccc1-c1ccno1.O=C(O)C(F)(F)F [Example 146]
11,39.0 ± 0.6%,CC(C)(Cc1ccc(Oc2ncccc2C(N)=O)cc1)NC[C@H](O)COc1ccccc1-n1ccc(C#N)c1.Cl [Example 271]
12,45.1 ± 2.6%,CCOC(=O)c1ccc(Oc2ccc(CC(C)(C)NC[C@H](O)COc3ccccc3-c3nccs3)cc2)c(F)c1.O=C(O)C(F)(F)F [Example 185]
13,74.5 ± 12.5%,CC(C)(Cc1ccc(Oc2ncccc2C#N)cc1)NC[C@H](O)COc1ccccc1-c1ccno1 [Example 53]
14,67.6 ± 7.1%,CC(C)(Cc1ccc(Oc2ncccc2C(N)=O)cc1)NC[C@H](O)COc1ccccc1-c1ccno1 [Example 72]
15,66.8 ± 6.8%,CC(C)(Cc1ccc(Oc2ncccc2C#N)cc1)NC[C@H](O)COc1ccccc1-c1ccno1.Cl [Example 54]
16,67.2 ± 4.8%,CC(C)(Cc1ccc(Oc2cccnc2C#N)cc1)NC[C@H](O)COc1ccccc1-c1cccs1.O=C(O)C(F)(F)F [Example 143]
17,30.1 ± 2.1%,CC(C)(Cc1ccc(Oc2ncccc2C#N)cc1)NC[C@H](O)COc1ccccc1-c1cc2ccccc2[nH]1 [Example 56]
18,26.2 ± 4.3%,CC(C)(Cc1ccc(Oc2ccc(C(N)=O)cn2)cc1)NC[C@H](O)COc1ccccc1-c1ccnc(N)n1 [Example 33]
19,56.0 ± 2.9%,CC(C)(Cc1ccc(Oc2ccc(C#N)nc2)cc1)NC[C@H](O)COc1ccccc1-c1cccs1.O=C(O)C(F)(F)F [Example 220]
20,41.7 n = 1%,COC(=O)c1ccc(Oc2ccc(CC(C)(C)NC[C@H](O)COc3ccccc3-c3ccn(C)n3)cc2)c(Cl)c1 [Example 138]
21,77.4 n = 1%,Cn1ccc(-c2ccccc2OC[C@@H](O)CNC(C)(C)Cc2ccc(Oc3ccc(C(N)=O)cn3)cc2)n1 [Example 67]
22,28.9 n = 1%,CC(C)(Cc1ccc(Oc2ccc(C(N)=O)cn2)cc1)NC[C@H](O)COc1cccc(-c2ccno2)c1 [Example 35]
